Measurements as given in ChEMBL document CHEMBL3885861, “Open TG-GATES”.

Species: Rattus norvegicus
Experiment: Open TG-GATES - Regimen: Single
Format: toxicity, organism-based, Sprague-Dawley
Design: regimen Single, gender Male, age 6 weeks
Conditions: in vivo, po, 1000 mg/kg, route gavage, dose level High; for APTT / Bas / Eos / Fbg / Hb / Ht / Lym / MCH / MCHC / MCV / Mono / Neu / PT / Plat / RBC / Ret / WBC: tissue Blood; for KIDNEY_L / KIDNEY_R / KIDNEY_TOTAL: tissue Kidney; for LIVER: tissue Liver; for A/G / ALP / ALT / AST / BUN / CRE / Ca / Cl / DBIL / GLC / IP / K / LDH / Na / PL / RALB / TBIL / TC / TG / TP / gamma-GTP: tissue Plasma

With CCCCNC(=O)NS(=O)(=O)c1ccc(C)cc1 [TOLBUTAMIDE] the TERMINAL_BW (3 h) was 206.8 g, the APTT (3 h) was 17 s and the Bas (3 h) was 0%. It also gave an Eos (3 h) of 0.8%, a Fbg (3 h) of 292.2 mg/dL and a Hb (3 h) of 14.1 g/dL. It also gave a Ht (3 h) of 43.1%, a Lym (3 h) of 76.8% and an MCH (3 h) of 21 pg. For the same compound, the MCHC (3 h) was 32.6%, the MCV (3 h) was 64.4 fL and the Mono (3 h) was 3%. The Neu (3 h) was 18.6%, the PT (3 h) was 12.9 s and the Plat (3 h) was 111.8 x10_4/uL. It also gave an RBC (3 h) of 669.4 x10_4/ul, a Ret (3 h) of 9% and a WBC (3 h) of 54.6 x10_2/uL. The KIDNEY_L (3 h) was 0.9 g, the KIDNEY_R (3 h) was 0.9 g and the KIDNEY_TOTAL (3 h) was 1.8 g. It also gave an LIVER (3 h) of 9.4 g, an A/G (3 h) of 0.9 and an ALP (3 h) of 1359.4 IU/L. The ALT (3 h) was 46.8 IU/L, the AST (3 h) was 77.6 IU/L and the BUN (3 h) was 12.4 mg/dL. For the same compound, the CRE (3 h) was 0.2 mg/dL, the Ca (3 h) was 10.9 mg/dL and the Cl (3 h) was 105.8 meq/L. For the same compound, the DBIL (3 h) was 0.004 mg/dL, the GLC (3 h) was 152 mg/dL and the IP (3 h) was 9.3 mg/dL. For the same compound, the K (3 h) was 4 meq/L, the LDH (3 h) was 56.4 IU/L and the Na (3 h) was 140.6 meq/L. For the same compound, the PL (3 h) was 138.2 mg/dL, the RALB (3 h) was 2.7 g/dL and the TBIL (3 h) was 0.05 mg/dL. The TC (3 h) was 73.6 mg/dL, the TG (3 h) was 75 mg/dL and the TP (3 h) was 5.6 g/dL. The gamma-GTP (3 h) was 1 IU/L, the TERMINAL_BW (6 h) was 203.1 g and the APTT (6 h) was 16.9 s. For the same compound, the Bas (6 h) was 0%, the Eos (6 h) was 1% and the Fbg (6 h) was 321.6 mg/dL. For the same compound, the Hb (6 h) was 14.1 g/dL, the Ht (6 h) was 43% and the Lym (6 h) was 72%. It also gave an MCH (6 h) of 21.4 pg, an MCHC (6 h) of 32.7% and an MCV (6 h) of 65.3 fL. For the same compound, the Mono (6 h) was 3.4%, the Neu (6 h) was 23.6% and the PT (6 h) was 12.8 s. It also gave a Plat (6 h) of 120.2 x10_4/uL, an RBC (6 h) of 659.8 x10_4/ul and a Ret (6 h) of 8.9%. It also gave a WBC (6 h) of 69.4 x10_2/uL, a KIDNEY_L (6 h) of 0.9 g and a KIDNEY_R (6 h) of 0.9 g. It also gave a KIDNEY_TOTAL (6 h) of 1.8 g, an LIVER (6 h) of 8.5 g and an A/G (6 h) of 0.9. For the same compound, the ALP (6 h) was 1301 IU/L, the ALT (6 h) was 39 IU/L and the AST (6 h) was 70.6 IU/L. The BUN (6 h) was 12.6 mg/dL, the CRE (6 h) was 0.2 mg/dL and the Ca (6 h) was 11 mg/dL. For the same compound, the Cl (6 h) was 105.2 meq/L, the DBIL (6 h) was 0.008 mg/dL and the GLC (6 h) was 140 mg/dL. It also gave an IP (6 h) of 9.8 mg/dL, a K (6 h) of 3.9 meq/L and an LDH (6 h) of 56 IU/L. For the same compound, the Na (6 h) was 140.6 meq/L, the PL (6 h) was 144.4 mg/dL and the RALB (6 h) was 2.7 g/dL. It also gave a TBIL (6 h) of 0.054 mg/dL, a TC (6 h) of 79.6 mg/dL and a TG (6 h) of 64.2 mg/dL. It also gave a TP (6 h) of 5.7 g/dL, a gamma-GTP (6 h) of 1.2 IU/L and a TERMINAL_BW (9 h) of 197.9 g. For the same compound, the APTT (9 h) was 17.7 s, the Bas (9 h) was 0.2% and the Eos (9 h) was 1%. It also gave a Fbg (9 h) of 332.8 mg/dL, a Hb (9 h) of 14.4 g/dL and a Ht (9 h) of 43.7%. For the same compound, the Lym (9 h) was 75%, the MCH (9 h) was 21 pg and the MCHC (9 h) was 33.1%. For the same compound, the MCV (9 h) was 63.4 fL, the Mono (9 h) was 1.8% and the Neu (9 h) was 22%. The PT (9 h) was 13.1 s, the Plat (9 h) was 127.4 x10_4/uL and the RBC (9 h) was 689.4 x10_4/ul. It also gave a Ret (9 h) of 8.2%, a WBC (9 h) of 56.7 x10_2/uL and a KIDNEY_L (9 h) of 0.9 g. It also gave a KIDNEY_R (9 h) of 0.9 g, a KIDNEY_TOTAL (9 h) of 1.9 g and an LIVER (9 h) of 7.8 g. For the same compound, the A/G (9 h) was 0.9, the ALP (9 h) was 1554.6 IU/L and the ALT (9 h) was 38.8 IU/L. For the same compound, the AST (9 h) was 69.8 IU/L, the BUN (9 h) was 11.2 mg/dL and the CRE (9 h) was 0.2 mg/dL. For the same compound, the Ca (9 h) was 10.7 mg/dL, the Cl (9 h) was 106 meq/L and the DBIL (9 h) was 0.006 mg/dL. It also gave a GLC (9 h) of 125.2 mg/dL, an IP (9 h) of 10.4 mg/dL and a K (9 h) of 3.9 meq/L. For the same compound, the LDH (9 h) was 53.6 IU/L, the Na (9 h) was 141.4 meq/L and the PL (9 h) was 127 mg/dL. For the same compound, the RALB (9 h) was 2.7 g/dL, the TBIL (9 h) was 0.056 mg/dL and the TC (9 h) was 66.2 mg/dL. It also gave a TG (9 h) of 44.2 mg/dL, a TP (9 h) of 5.8 g/dL and a gamma-GTP (9 h) of 1 IU/L. The TERMINAL_BW (24 h) was 213.9 g, the APTT (24 h) was 16.6 s and the Bas (24 h) was 0%. For the same compound, the Eos (24 h) was 1%, the Fbg (24 h) was 274 mg/dL and the Hb (24 h) was 13.3 g/dL. It also gave a Ht (24 h) of 41.1%, a Lym (24 h) of 80% and an MCH (24 h) of 21 pg. The MCHC (24 h) was 32.5%, the MCV (24 h) was 64.4 fL and the Mono (24 h) was 3%. For the same compound, the Neu (24 h) was 15.6%, the PT (24 h) was 13.4 s and the Plat (24 h) was 117.8 x10_4/uL. It also gave an RBC (24 h) of 637.8 x10_4/ul, a Ret (24 h) of 7.3% and a WBC (24 h) of 83.8 x10_2/uL. The KIDNEY_L (24 h) was 0.9 g, the KIDNEY_R (24 h) was 0.9 g and the KIDNEY_TOTAL (24 h) was 1.8 g. The LIVER (24 h) was 9.4 g, the A/G (24 h) was 0.9 and the ALP (24 h) was 1517.2 IU/L. For the same compound, the ALT (24 h) was 44.2 IU/L, the AST (24 h) was 75.4 IU/L and the BUN (24 h) was 15.4 mg/dL. The CRE (24 h) was 0.2 mg/dL, the Ca (24 h) was 10.9 mg/dL and the Cl (24 h) was 106.6 meq/L. The DBIL (24 h) was 0.006 mg/dL, the GLC (24 h) was 201.4 mg/dL and the IP (24 h) was 8.4 mg/dL. It also gave a K (24 h) of 3.9 meq/L, an LDH (24 h) of 73.4 IU/L and a Na (24 h) of 141.6 meq/L. For the same compound, the PL (24 h) was 136.6 mg/dL, the RALB (24 h) was 2.5 g/dL and the TBIL (24 h) was 0.058 mg/dL. For the same compound, the TC (24 h) was 77.2 mg/dL, the TG (24 h) was 72.2 mg/dL and the TP (24 h) was 5.4 g/dL. The gamma-GTP (24 h) was 1 IU/L.
